The results in this text go back to US9957270B2, “Fused pyrimidine-based hydroxamate derivatives” (Agency for Science, Technology and Research, priority 2014, dated 2018).

The target of one data set is T1, PI3Kβ (Homo sapiens, UniProt P42338).
T1 construct: purchased SignalChem or BPS P28-10H / 40622
The data set can be described thus: Kinase enzyme assay (ADP-Glo), PI3Kβ. The following applies: read-out: In Vitro Enzymatic IC50 PI3Kβ. Type of data set: biochemical. (In general: ADP-Glo first removes unused ATP, then detects ADP through luciferase.)

In the next data set the target is T2, p110α(H1047R)/p85α (Homo sapiens, UniProt P42336, H1047R).
T2 construct: purchased BPS 40641
T2 sequence (P42336 whole entry H1047R): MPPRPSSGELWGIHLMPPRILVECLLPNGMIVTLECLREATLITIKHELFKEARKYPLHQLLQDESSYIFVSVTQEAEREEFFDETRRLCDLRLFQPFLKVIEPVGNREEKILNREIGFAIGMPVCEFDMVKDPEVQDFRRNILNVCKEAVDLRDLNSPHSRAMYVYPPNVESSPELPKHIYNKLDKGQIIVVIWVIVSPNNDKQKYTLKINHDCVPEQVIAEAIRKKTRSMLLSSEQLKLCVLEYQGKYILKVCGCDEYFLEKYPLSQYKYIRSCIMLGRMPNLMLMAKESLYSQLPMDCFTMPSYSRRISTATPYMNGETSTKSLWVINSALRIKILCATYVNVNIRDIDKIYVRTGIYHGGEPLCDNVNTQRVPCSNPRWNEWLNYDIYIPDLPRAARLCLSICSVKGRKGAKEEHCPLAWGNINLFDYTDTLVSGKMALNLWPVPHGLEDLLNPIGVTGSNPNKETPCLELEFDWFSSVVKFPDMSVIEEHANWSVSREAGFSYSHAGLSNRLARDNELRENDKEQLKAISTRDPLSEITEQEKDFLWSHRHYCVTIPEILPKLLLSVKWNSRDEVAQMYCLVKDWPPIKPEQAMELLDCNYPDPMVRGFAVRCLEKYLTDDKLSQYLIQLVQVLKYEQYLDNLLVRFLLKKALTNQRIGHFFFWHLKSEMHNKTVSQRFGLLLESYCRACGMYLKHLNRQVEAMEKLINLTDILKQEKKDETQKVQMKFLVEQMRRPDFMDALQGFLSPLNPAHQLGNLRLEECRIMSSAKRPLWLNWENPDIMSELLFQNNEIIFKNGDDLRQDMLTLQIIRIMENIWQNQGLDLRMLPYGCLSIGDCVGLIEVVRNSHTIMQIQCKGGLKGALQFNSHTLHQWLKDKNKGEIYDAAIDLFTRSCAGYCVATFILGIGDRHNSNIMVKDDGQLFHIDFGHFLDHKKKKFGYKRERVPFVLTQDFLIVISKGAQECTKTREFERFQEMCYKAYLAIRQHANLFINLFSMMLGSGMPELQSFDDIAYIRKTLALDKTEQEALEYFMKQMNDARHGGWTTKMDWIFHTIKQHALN
T2 sequence (P27986 whole entry partner): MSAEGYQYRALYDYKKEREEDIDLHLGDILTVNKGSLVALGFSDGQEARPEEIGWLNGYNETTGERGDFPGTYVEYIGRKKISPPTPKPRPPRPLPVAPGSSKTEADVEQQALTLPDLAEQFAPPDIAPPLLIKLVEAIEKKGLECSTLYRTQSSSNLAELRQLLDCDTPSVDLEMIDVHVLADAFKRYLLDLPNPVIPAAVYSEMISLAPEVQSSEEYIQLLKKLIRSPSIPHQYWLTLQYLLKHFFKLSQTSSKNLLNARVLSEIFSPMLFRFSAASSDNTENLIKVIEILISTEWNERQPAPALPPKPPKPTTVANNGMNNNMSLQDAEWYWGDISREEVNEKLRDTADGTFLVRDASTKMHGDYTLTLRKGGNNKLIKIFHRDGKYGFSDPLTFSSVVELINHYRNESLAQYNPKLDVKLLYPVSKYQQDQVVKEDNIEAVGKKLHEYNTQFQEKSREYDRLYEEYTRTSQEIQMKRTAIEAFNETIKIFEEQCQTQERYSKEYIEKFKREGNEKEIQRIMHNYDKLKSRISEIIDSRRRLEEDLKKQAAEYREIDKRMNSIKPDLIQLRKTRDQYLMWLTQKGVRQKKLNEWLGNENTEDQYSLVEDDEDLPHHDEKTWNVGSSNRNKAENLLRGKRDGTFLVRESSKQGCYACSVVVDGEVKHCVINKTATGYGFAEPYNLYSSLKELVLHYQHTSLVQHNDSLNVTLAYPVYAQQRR
Briefly: Kinase enzyme assay (ADP-Glo), PI3Kα (H1047R). The class given is biochemical. The following applies: read-out: In Vitro Enzymatic IC50 PI3Kα (H1047R).

Another data set concerns the target T3, p110α(E545K)/p85α (Homo sapiens, UniProt P42336, E545K).
T3 construct: purchased SignalChem P27-15H
The data set can be described thus: Kinase enzyme assay (ADP-Glo), PI3Kα (E545K). Type of data set: biochemical. The following applies: read-out: In Vitro Enzymatic IC50 PI3Kα (E545K).

The next data set concerns the target T4, HDAC6 (Homo sapiens, UniProt Q9UBN7).
T4 sequence (Q9UBN7 1-1215): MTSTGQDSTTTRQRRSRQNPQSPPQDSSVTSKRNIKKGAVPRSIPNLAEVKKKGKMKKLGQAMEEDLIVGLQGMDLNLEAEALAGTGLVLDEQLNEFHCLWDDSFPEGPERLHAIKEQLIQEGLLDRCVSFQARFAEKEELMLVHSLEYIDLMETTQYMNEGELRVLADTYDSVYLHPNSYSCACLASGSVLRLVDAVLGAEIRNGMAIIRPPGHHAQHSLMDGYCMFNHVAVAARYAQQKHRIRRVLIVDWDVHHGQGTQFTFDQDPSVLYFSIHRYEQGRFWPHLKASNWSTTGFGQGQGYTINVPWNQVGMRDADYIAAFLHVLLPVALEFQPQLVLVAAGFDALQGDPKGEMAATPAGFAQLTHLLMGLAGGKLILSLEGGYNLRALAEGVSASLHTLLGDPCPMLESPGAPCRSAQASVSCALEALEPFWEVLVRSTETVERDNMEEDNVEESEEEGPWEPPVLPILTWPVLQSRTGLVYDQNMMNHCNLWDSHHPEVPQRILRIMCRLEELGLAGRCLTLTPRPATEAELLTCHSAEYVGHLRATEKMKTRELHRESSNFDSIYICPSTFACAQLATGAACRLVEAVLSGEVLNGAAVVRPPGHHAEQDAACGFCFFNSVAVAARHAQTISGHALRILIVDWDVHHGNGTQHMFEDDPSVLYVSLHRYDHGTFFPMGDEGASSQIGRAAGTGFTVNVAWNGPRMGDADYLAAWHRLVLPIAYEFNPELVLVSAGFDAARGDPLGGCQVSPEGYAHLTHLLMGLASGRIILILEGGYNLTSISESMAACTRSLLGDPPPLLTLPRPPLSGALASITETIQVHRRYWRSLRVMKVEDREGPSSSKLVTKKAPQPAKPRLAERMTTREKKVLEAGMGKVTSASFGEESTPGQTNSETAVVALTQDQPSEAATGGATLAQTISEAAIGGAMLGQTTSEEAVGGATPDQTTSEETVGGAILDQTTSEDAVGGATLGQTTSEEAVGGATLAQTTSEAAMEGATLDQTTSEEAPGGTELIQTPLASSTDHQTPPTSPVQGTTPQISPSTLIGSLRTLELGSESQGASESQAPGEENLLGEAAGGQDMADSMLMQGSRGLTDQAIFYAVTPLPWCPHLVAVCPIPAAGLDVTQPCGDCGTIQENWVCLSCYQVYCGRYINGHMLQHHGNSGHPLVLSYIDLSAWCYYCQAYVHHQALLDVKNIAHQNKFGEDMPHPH
The data set can be described thus: HDAC enzyme assay, recombinant HDAC6.

Data set [1] addresses HDAC (HeLa nuclear extracts). The data set can be described thus: HDAC enzyme assay, HeLa nuclear extracts. The following applies: read-out: In Vitro Enzymatic IC50 HDAC (HeLa).
In the next data set the target is HDAC1 (Homo sapiens, UniProt Q13547). The data set can be described thus: HDAC enzyme assay, recombinant HDAC1.
Chain of HDAC1 (Q13547 whole entry): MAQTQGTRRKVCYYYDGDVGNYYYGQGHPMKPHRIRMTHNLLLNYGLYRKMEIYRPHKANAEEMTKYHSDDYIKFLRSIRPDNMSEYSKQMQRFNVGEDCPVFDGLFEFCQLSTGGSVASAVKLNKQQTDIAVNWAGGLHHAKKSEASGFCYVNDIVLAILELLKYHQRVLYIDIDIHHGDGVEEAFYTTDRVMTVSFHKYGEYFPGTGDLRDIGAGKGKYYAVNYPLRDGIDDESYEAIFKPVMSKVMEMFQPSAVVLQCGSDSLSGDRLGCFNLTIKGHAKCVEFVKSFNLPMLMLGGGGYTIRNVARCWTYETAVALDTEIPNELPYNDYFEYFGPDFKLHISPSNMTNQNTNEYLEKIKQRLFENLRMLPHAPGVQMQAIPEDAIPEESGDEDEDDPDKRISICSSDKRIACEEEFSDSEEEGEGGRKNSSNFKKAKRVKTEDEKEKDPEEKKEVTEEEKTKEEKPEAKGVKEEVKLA
The next data set has as its target T5, PI3Kα (Homo sapiens, UniProt P42336).
T5 construct: purchased Invitrogen, or BPS Bioscience Inc., or SignalChem PV4788 / 40620 / P27-18H
Briefly: Kinase enzyme assay (ADP-Glo), PI3Kα. The class given is biochemical. The following applies: read-out: In Vitro Enzymatic IC50 PI3Kα.

A further data set relates to HCT 116. The data set can be described thus: cells. The following applies: Homo sapiens.
For a further data set, the system named is HEL9217. Briefly: Anti-proliferative assay (cellular IC50), HEL9217. The following applies: Homo sapiens, HEL 92.1.7, read-out: In Vitro Cellular IC50 HEL9217.
Another data set has as its system HuH-7. Briefly: Anti-proliferative assay (cellular IC50), HuH-7. The following applies: Homo sapiens, Huh-7, read-out: In Vitro Cellular IC50 HuH-7.
In a further data set the test system is MOLT-4. Briefly: Anti-proliferative assay (cellular IC50), MOLT-4. The conditions noted are these: Homo sapiens.
In another data set the test system is A-431. The data set can be described thus: Anti-proliferative assay (cellular IC50), A-431. The following applies: Homo sapiens, A-431, read-out: In Vitro Cellular IC50 A-431.
In the next data set the test system is A549. The data set can be described thus: Anti-proliferative assay (cellular IC50), A549. The following applies: Homo sapiens, A549, read-out: In Vitro Cellular IC50 A549.
For a further data set, the system named is U87 MG. Briefly: Anti-proliferative assay (cellular IC50), U87 MG. The following applies: Homo sapiens, U-87 MG, read-out: In Vitro Cellular IC50 U87 MG.
The test system of a further data set is 4T1. Briefly: cells. The following applies: Mus musculus, 4T1, read-out: In Vitro Cellular IC50 4T1.
In a further data set the test system is U138MG. The data set can be described thus: Anti-proliferative assay (cellular IC50), U138MG. The following applies: Homo sapiens, U138-MG, read-out: In Vitro Cellular IC50 U138MG.
Another data set has as its system HCCLM3. Briefly: Anti-proliferative assay (cellular IC50), HCCLM3. The conditions noted are these: Homo sapiens, HCCLM3, read-out: In Vitro Cellular IC50 HCCLM3.
Another data set has as its system MCF7. The data set can be described thus: Anti-proliferative assay (cellular IC50), MCF7. The following applies: Homo sapiens.
For another data set, the system named is Raji. Briefly: Anti-proliferative assay (cellular IC50), Raji. The following applies: Homo sapiens, read-out: In Vitro Cellular IC50 Raji.
The next data set relates to NCI-H460. The data set can be described thus: Anti-proliferative assay (cellular IC50), NCI-H460. The conditions noted are these: Homo sapiens, NCI-H460, read-out: In Vitro Cellular IC50 NCI-H460.
Another data set deals with NCI-H522. Briefly: Anti-proliferative assay (cellular IC50), NCI-H522. The following applies: Homo sapiens, NCI-H522, read-out: In Vitro Cellular IC50 NCI-H522.
In the next data set the test system is Daudi. The data set can be described thus: Anti-proliferative assay (cellular IC50), Daudi. The conditions noted are these: Homo sapiens, read-out: In Vitro Cellular IC50 Daudi.
The test system of another data set is SK-HEP1. Briefly: Anti-proliferative assay (cellular IC50), SK-HEP1. The conditions noted are these: Homo sapiens, SK-HEP1, read-out: In Vitro Cellular IC50 SK-HEP1.
Another data set has as its system PLC/PRF/5. The data set can be described thus: cells. The conditions noted are these: Homo sapiens, PLC-PRF-5, read-out: In Vitro Cellular IC50 PLC/PRF/5.
The test system of another data set is Pfeiffer. The data set can be described thus: Anti-proliferative assay (cellular IC50), Pfeiffer. The conditions noted are these: Homo sapiens, read-out: In Vitro Cellular IC50 Pfeiffer.
Another data set concerns MV-4-11. Briefly: cells. The following applies: Homo sapiens.
A further data set deals with HepG2. The data set can be described thus: Anti-proliferative assay (cellular IC50), HepG2. The following applies: Homo sapiens.
The test system of data set [2] is HepG2 xenograft. An excerpt:
In FIG. 26, Efficacy in CB17 scid mice HepG2 xenograft model is shown. […] Vehicle group has BW loss due to increasing tumor burden.

In data set [3] the test system is HepG2 xenograft. The conditions noted are these: HepG2, NCr nude mice, 98 mg/kg oral QD×5 per week, day 18.

Where a name gives a salt, the structure may show the parent alone. Read-outs that look alike come from different tables or passages of the source.

T1 sequence (P42338 whole entry): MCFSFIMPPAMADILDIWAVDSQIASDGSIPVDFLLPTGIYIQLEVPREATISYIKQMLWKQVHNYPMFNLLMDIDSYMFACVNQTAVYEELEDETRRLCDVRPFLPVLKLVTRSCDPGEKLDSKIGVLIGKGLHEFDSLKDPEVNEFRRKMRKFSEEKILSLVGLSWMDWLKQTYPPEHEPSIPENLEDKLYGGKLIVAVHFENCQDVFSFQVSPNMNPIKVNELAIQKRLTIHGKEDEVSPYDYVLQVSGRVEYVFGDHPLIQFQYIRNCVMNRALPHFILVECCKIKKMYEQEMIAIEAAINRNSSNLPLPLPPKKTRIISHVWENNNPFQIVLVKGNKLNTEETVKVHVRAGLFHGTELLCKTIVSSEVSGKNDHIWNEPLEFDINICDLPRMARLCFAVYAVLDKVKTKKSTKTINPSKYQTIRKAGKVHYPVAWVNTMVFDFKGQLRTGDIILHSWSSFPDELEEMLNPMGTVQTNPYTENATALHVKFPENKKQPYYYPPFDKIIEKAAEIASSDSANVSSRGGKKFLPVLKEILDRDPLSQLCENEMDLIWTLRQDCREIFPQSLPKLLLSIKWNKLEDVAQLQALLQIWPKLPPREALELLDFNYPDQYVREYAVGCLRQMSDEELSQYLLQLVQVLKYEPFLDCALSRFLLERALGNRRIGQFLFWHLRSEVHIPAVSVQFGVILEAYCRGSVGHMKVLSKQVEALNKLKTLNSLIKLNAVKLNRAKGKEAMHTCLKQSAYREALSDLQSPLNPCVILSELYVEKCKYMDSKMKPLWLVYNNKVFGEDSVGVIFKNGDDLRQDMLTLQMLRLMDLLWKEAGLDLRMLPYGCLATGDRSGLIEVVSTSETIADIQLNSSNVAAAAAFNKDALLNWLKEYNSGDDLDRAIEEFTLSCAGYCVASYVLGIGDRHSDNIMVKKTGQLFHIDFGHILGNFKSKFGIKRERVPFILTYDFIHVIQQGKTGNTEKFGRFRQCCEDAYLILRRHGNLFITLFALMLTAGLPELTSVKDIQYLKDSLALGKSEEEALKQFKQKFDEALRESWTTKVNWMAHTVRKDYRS
T1 sequence (P27986 whole entry partner): as the sequence (P27986 whole entry partner) above
T5 sequence (P42336 whole entry): as the sequence (P42336 whole entry H1047R) above, with R1047H counted along it
T5 sequence (P27986 whole entry partner): as the sequence (P27986 whole entry partner) above
T3 sequence (P42336 whole entry E545K): as the sequence (P42336 whole entry H1047R) above, with E545K, R1047H counted along it
T3 sequence (P27986 whole entry partner): as the sequence (P27986 whole entry partner) above

In the case of `CC(C)n1cnc2c(-c3cnc(N)nc3)nc(NCCCCCC(=O)NO)nc21` [compound 38, 6-((6-(2-aminopyrimidin-5-yl)-9-isopropyl-9H-purin-2-yl)amino)-N-hydroxyhexanamide], the IC50 is 100 to 1000 nM on PI3Kβ; 10 to 100 nM at p110α(H1047R)/p85α; 10 to 100 nM at p110α(E545K)/p85α; below 10 nM at HDAC6; below 10 nM in data set [1]; below 10 nM on HDAC1. For the same compound, the IC50 on PI3Kα lay in the range of 10 to 100 nM.
Consider `CC(C)n1cnc2c(N3CCOCC3)nc(-c3ccc(OCCCCCCC(=O)NO)cc3)nc21` [compound 81, N-hydroxy-7-(4-(9-isopropyl-6-morpholino-9H-purin-2-yl)phenoxy)heptanamide], for which the IC50 was 100 to 1000 nM at PI3Kβ; 10 to 100 nM at p110α(H1047R)/p85α; 10 to 100 nM at p110α(E545K)/p85α; below 10 nM at HDAC6; below 10 nM in [1]; below 10 nM at HDAC1. The IC50 on PI3Kα lay in the range of 10 to 100 nM.
`O=C(CCCOc1cccc(-c2nc(N3CCOCC3)nc3c2ncn3C2CCCC2)c1)NO` [compound 100, 4-(3-(9-cyclopentyl-2-morpholino-9H-purin-6-yl)phenoxy)-N-hydroxybutanamide]: the IC50 in the data set with HCT 116 (HCT-116, 72 h, read-out: In Vitro Cellular IC50 HCT 116) was below 500 nM; with HCT 116 (HCT-116, read-out: In Vitro Cellular IC50 HCT 116), below 500 nM; with HEL9217, below 500 nM; in the data set on HuH-7, below 500 nM; in the data set with MOLT-4 (MOLT-4, 72 h, read-out: In Vitro Cellular IC50 MOLT-4) it was below 500 nM; in the data set on MOLT-4 (MOLT-4, read-out: In Vitro Cellular IC50 MOLT-4) it was below 500 nM. Also, the IC50 in the data set on A-431 was 500 to 2000 nM; in the data set on A549 it was below 500 nM; in the data set on U87 MG it was 500 to 2000 nM; in the data set with 4T1, 500 to 2000 nM; with U138MG it was 500 to 2000 nM; with HCCLM3, 2000 to 10000 nM. The IC50 in the data set with MCF7 (MCF7, 72 h, read-out: In Vitro Cellular IC50 MCF7) is below 500 nM; in the data set with MCF7 (MCF7, read-out: In Vitro Cellular IC50 MCF7), below 500 nM; in [1] it was 10 to 100 nM; with Raji, below 500 nM; in the data set on NCI-H460, below 500 nM; in the data set on NCI-H522, 500 to 2000 nM. For the same compound, the IC50 is below 500 nM in the data set on Daudi; 500 to 2000 nM in the data set on SK-HEP1; 500 to 2000 nM in the data set on PLC/PRF/5; below 500 nM in the data set on Pfeiffer; below 500 nM in the data set with MV-4-11 (MV4-11, 72 h, read-out: In Vitro Cellular IC50 MV-4-11); below 500 nM in the data set on MV-4-11 (MV4-11, read-out: In Vitro Cellular IC50 MV-4-11). Besides, the IC50 in the data set on HepG2 (HepG2, 72 h, read-out: In Vitro Cellular IC50 HepG2) fell in the range of 500 to 2000 nM; in the data set with HepG2 (HepG2, read-out: In Vitro Cellular IC50 HepG2) it was 500 to 2000 nM.
Take `CNC(=O)c1cc(Oc2ccc(NC(=O)Nc3ccc(Cl)c(C(F)(F)F)c3)cc2)ccn1` [sorafenib tosylate]: the “Tumor growth inhibition (TGI)” value is 98% in the data set with HepG2 xenograft [2] (HepG2, CB17 scid mice, 100 mg/kg QD×5×2 then 80 mg/kg QD×5×2 oral, day 26) and 71% in the data set with HepG2 xenograft [3]. Besides, the Tolerability result in the data set on HepG2 xenograft [2] (mouse, in vivo, po, 100 mg/kg) is “not well tolerated”.
